Measured values taken from the supplement of paper PMC10307832.

How the values were obtained:
Assay in all cases: relative viability (nuclei count vs DMSO), 5 days (fraction); higher = more cells survive
NCI-H1944 = system: NCI-H1944
In short: (§1)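 For relative viability, nuclei counts in treated wells were divided by those in vehicle wells. Lung cancer cell lines had been pin-tool dosed in 1536-well plates the day after seeding and cultured for 5 days, then fixed and stained in one step (final 0.05% Triton X-100, 1% formaldehyde, 1 ug/ml Hoechst) and imaged at 4×. Doses were one drug alone or a fixed anchor-drug dose plus five library-drug doses (not always all listed) in √10 steps, and values are duplicate-plate medians.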

NCI-H647 = system: NCI-H647
In short: as §1

HCC-44 = system: HCC-44
In short: as §1

201T = system: 201T
In short: as §1

LXF-289 = system: LXF-289
In short: as §1

HCC-827 = system: HCC-827
In short: as §1

NCI-H727 = system: NCI-H727
In short: as §1

NCI-H2405 = system: NCI-H2405
In short: as §1

BEN = system: BEN
In short: as §1

NCI-H1437 = system: NCI-H1437
In short: as §1

LCLC-103H = system: LCLC-103H
In short: as §1

SK-LU-1 = system: SK-LU-1
In short: as §1

HOP-62 = system: HOP-62
In short: as §1

CAL-12T = system: CAL-12T
In short: as §1

RERF-LC-KJ = system: RERF-LC-KJ
In short: as §1

NCI-H2087 = system: NCI-H2087
In short: as §1

NCI-H3122 = system: NCI-H3122
In short: as §1

NCI-H1650 = system: NCI-H1650
In short: as §1

NCI-H2228 = system: NCI-H2228
In short: as §1

NCI-H1793 = system: NCI-H1793
In short: as §1

LCLC-97TM1 = system: LCLC-97TM1
In short: as §1

NCI-H322M = system: NCI-H322M
In short: as §1

NCI-H1395 = system: NCI-H1395
In short: as §1

Compound: NC(=O)Nc1cc(-c2cccc(F)c2)sc1C(=O)N[C@H]1CCCNC1 [AZD7762] + CC(=O)c1c(C)c2cnc(Nc3ccc(N4CCNCC4)cn3)nc2n(C2CCCC2)c1=O [Palbociclib] (partner 0.5 µM)
- relative viability (NCI-H1944; first compound 0.01 µM): 0.383
- relative viability (NCI-H1944; first compound 0.03162 µM): 0.382
- relative viability (NCI-H1944; first compound 0.1 µM): 0.409
- relative viability (NCI-H1944; first compound 0.3162 µM): 0.402
- relative viability (NCI-H1944; first compound 1 µM): 0.359
- relative viability (NCI-H647; first compound 0.01 µM): 0.434
- relative viability (NCI-H647; first compound 0.03162 µM): 0.424
- relative viability (NCI-H647; first compound 0.1 µM): 0.359
- relative viability (NCI-H647; first compound 0.3162 µM): 0.163
- relative viability (NCI-H647; first compound 1 µM): 0.125
- relative viability (HCC-44; first compound 0.01 µM): 1.02
- relative viability (HCC-44; first compound 0.03162 µM): 0.923
- relative viability (HCC-44; first compound 0.1 µM): 0.965
- relative viability (HCC-44; first compound 0.3162 µM): 0.93
- relative viability (HCC-44; first compound 1 µM): 1.04
- relative viability (201T; first compound 0.01 µM): 0.361
- relative viability (201T; first compound 0.03162 µM): 0.348
- relative viability (201T; first compound 0.1 µM): 0.361
- relative viability (201T; first compound 0.3162 µM): 0.386
- relative viability (201T; first compound 1 µM): 0.402
- relative viability (LXF-289; first compound 0.01 µM): 0.569
- relative viability (LXF-289; first compound 0.03162 µM): 0.689
- relative viability (LXF-289; first compound 0.1 µM): 0.628
- relative viability (LXF-289; first compound 0.3162 µM): 0.679
- relative viability (LXF-289; first compound 1 µM): 0.668
- relative viability (HCC-827; first compound 0.01 µM): 0.544
- relative viability (HCC-827; first compound 0.03162 µM): 0.469
- relative viability (HCC-827; first compound 0.1 µM): 0.486
- relative viability (HCC-827; first compound 0.3162 µM): 0.498
- relative viability (HCC-827; first compound 1 µM): 0.303
- relative viability (NCI-H727; first compound 0.01 µM): 0.693
- relative viability (NCI-H727; first compound 0.03162 µM): 0.669
- relative viability (NCI-H727; first compound 0.1 µM): 0.669
- relative viability (NCI-H727; first compound 0.3162 µM): 0.642
- relative viability (NCI-H727; first compound 1 µM): 0.559
- relative viability (NCI-H2405; first compound 0.01 µM): 0.516
- relative viability (NCI-H2405; first compound 0.03162 µM): 0.538
- relative viability (NCI-H2405; first compound 0.1 µM): 0.465
- relative viability (NCI-H2405; first compound 0.3162 µM): 0.507
- relative viability (NCI-H2405; first compound 1 µM): 0.302
- relative viability (BEN; first compound 0.01 µM): 0.476
- relative viability (BEN; first compound 0.03162 µM): 0.483
- relative viability (BEN; first compound 0.1 µM): 0.436
- relative viability (BEN; first compound 0.3162 µM): 0.422
- relative viability (BEN; first compound 1 µM): 0.366
- relative viability (NCI-H1437; first compound 0.01 µM): 0.357
- relative viability (NCI-H1437; first compound 0.03162 µM): 0.293
- relative viability (NCI-H1437; first compound 0.1 µM): 0.379
- relative viability (NCI-H1437; first compound 0.3162 µM): 0.41
- relative viability (NCI-H1437; first compound 1 µM): 0.35
- relative viability (LCLC-103H; first compound 0.01 µM): 0.438
- relative viability (LCLC-103H; first compound 0.03162 µM): 0.479
- relative viability (LCLC-103H; first compound 0.1 µM): 0.639
- relative viability (LCLC-103H; first compound 0.3162 µM): 0.449
- relative viability (LCLC-103H; first compound 1 µM): 0.544
- relative viability (SK-LU-1; first compound 0.01 µM): 0.364
- relative viability (SK-LU-1; first compound 0.03162 µM): 0.418
- relative viability (SK-LU-1; first compound 0.1 µM): 0.365
- relative viability (SK-LU-1; first compound 0.3162 µM): 0.232
- relative viability (SK-LU-1; first compound 1 µM): 0.232
- relative viability (HOP-62; first compound 0.01 µM): 0.476
- relative viability (HOP-62; first compound 0.03162 µM): 0.394
- relative viability (HOP-62; first compound 0.1 µM): 0.545
- relative viability (HOP-62; first compound 0.3162 µM): 0.484
- relative viability (HOP-62; first compound 1 µM): 0.487
- relative viability (CAL-12T; first compound 0.01 µM): 0.519
- relative viability (CAL-12T; first compound 0.03162 µM): 0.502
- relative viability (CAL-12T; first compound 0.1 µM): 0.412
- relative viability (CAL-12T; first compound 0.3162 µM): 0.194
- relative viability (CAL-12T; first compound 1 µM): 0.129
- relative viability (RERF-LC-KJ; first compound 0.01 µM): 1.09
- relative viability (RERF-LC-KJ; first compound 0.03162 µM): 1.07
- relative viability (RERF-LC-KJ; first compound 0.1 µM): 1.06
- relative viability (RERF-LC-KJ; first compound 0.3162 µM): 1.01
- relative viability (RERF-LC-KJ; first compound 1 µM): 0.965
- relative viability (NCI-H2087; first compound 0.01 µM): 0.213
- relative viability (NCI-H2087; first compound 0.03162 µM): 0.298
- relative viability (NCI-H2087; first compound 0.1 µM): 0.243
- relative viability (NCI-H2087; first compound 0.3162 µM): 0.274
- relative viability (NCI-H2087; first compound 1 µM): 0.317
- relative viability (NCI-H3122; first compound 0.01 µM): 0.167
- relative viability (NCI-H3122; first compound 0.03162 µM): 0.206
- relative viability (NCI-H3122; first compound 0.1 µM): 0.191
- relative viability (NCI-H3122; first compound 0.3162 µM): 0.199
- relative viability (NCI-H3122; first compound 1 µM): 0.191
- relative viability (NCI-H1650; first compound 0.01 µM): 0.367
- relative viability (NCI-H1650; first compound 0.03162 µM): 0.397
- relative viability (NCI-H1650; first compound 0.1 µM): 0.344
- relative viability (NCI-H1650; first compound 0.3162 µM): 0.314
- relative viability (NCI-H1650; first compound 1 µM): 0.176
- relative viability (NCI-H2228; first compound 0.01 µM): 0.787
- relative viability (NCI-H2228; first compound 0.03162 µM): 0.937
- relative viability (NCI-H2228; first compound 0.1 µM): 0.896
- relative viability (NCI-H2228; first compound 0.3162 µM): 0.283
- relative viability (NCI-H2228; first compound 1 µM): 0.156
- relative viability (NCI-H1793; first compound 0.01 µM): 0.34
- relative viability (NCI-H1793; first compound 0.03162 µM): 0.343
- relative viability (NCI-H1793; first compound 0.1 µM): 0.373
- relative viability (NCI-H1793; first compound 0.3162 µM): 0.347
- relative viability (NCI-H1793; first compound 1 µM): 0.225
- relative viability (LCLC-97TM1; first compound 0.01 µM): 0.214
- relative viability (LCLC-97TM1; first compound 0.03162 µM): 0.221
- relative viability (LCLC-97TM1; first compound 0.1 µM): 0.253
- relative viability (LCLC-97TM1; first compound 0.3162 µM): 0.28
- relative viability (LCLC-97TM1; first compound 1 µM): 0.274
- relative viability (NCI-H322M; first compound 0.01 µM): 0.477
- relative viability (NCI-H322M; first compound 0.03162 µM): 0.517
- relative viability (NCI-H322M; first compound 0.1 µM): 0.465
- relative viability (NCI-H322M; first compound 0.3162 µM): 0.523
- relative viability (NCI-H322M; first compound 1 µM): 0.441
- relative viability (NCI-H1395; first compound 0.01 µM): 0.642
- relative viability (NCI-H1395; first compound 0.03162 µM): 0.68
- relative viability (NCI-H1395; first compound 0.1 µM): 0.56
- relative viability (NCI-H1395; first compound 0.3162 µM): 0.456
- relative viability (NCI-H1395; first compound 1 µM): 0.363
